Source: PubChem BioAssay (NCI)
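Interpolation was linear, between the two tested concentrations surrounding the appropriate level; five concentrations were tested over 48 hours in 96-well plates. GI50 is the concentration that inhibits growth by half. TGI: concentration producing complete growth inhibition.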

Assays:
Experiment in all cases: growth of human tumour cells (NCI), 48 h
[1] = tested on: OVCAR-8 ovarian
[2] = tested on: COLO 205 colon
[3] = tested on: KM12 colon
[4] = tested on: NCI-H23 lung
[5] = tested on: CAKI-1 renal
[6] = tested on: DU-145 prostate
[7] = tested on: HL-60(TB) leukemia
[8] = tested on: MOLT-4 leukemia
[9] = tested on: OVCAR-5 ovarian
[10] = tested on: A498 renal
[11] = tested on: HOP-62 NSCLC
[12] = tested on: HCT-15 colon
[13] = tested on: A549 NSCLC
[14] = tested on: SK-MEL-2 melanoma
[15] = tested on: IGROV1 ovarian
[16] = tested on: MDA-MB-231 breast
[17] = tested on: HCT-116 colon
[18] = tested on: K-562 leukemia
[19] = tested on: EKVX NSCLC
[20] = tested on: PC-3 prostate
[21] = tested on: NCI/ADR-RES ovarian
[22] = tested on: TK-10 renal
[23] = tested on: U251 CNS
[24] = tested on: SNB-19 CNS
[25] = tested on: 786-0 renal
[26] = tested on: SK-MEL-5 melanoma
[27] = tested on: HOP-92 NSCLC
[28] = tested on: LOX IMVI melanoma
[29] = tested on: SW-620 colon
[30] = tested on: UACC-257 melanoma
[31] = tested on: NCI-H460 lung
[32] = tested on: SR leukemia
[33] = tested on: ACHN renal
[34] = tested on: SK-OV-3 ovarian
[35] = tested on: SN12C renal
[36] = tested on: MDA-MB-435
[37] = tested on: NCI-H522 lung
[38] = tested on: HT29 colon
[39] = tested on: SNB-75 CNS
[40] = tested on: OVCAR-3 ovarian
[41] = tested on: MALME-3M melanoma
[42] = tested on: SF-268 CNS
[43] = tested on: MDA-MB-468 breast
[44] = tested on: SF-295 CNS
[45] = tested on: UO-31 renal
[46] = tested on: CCRF-CEM leukemia
[47] = tested on: RXF 393 renal
[48] = tested on: SF-539 CNS
[49] = tested on: SK-MEL-28 melanoma
[50] = tested on: NCI-H226 lung
[51] = tested on: HS 578T breast
[52] = tested on: HCC-2998 colon
[53] = tested on: BT-549 breast
[54] = tested on: MCF7 breast
[55] = tested on: UACC-62 melanoma
[56] = tested on: M14 melanoma
[57] = tested on: OVCAR-4 ovarian
[58] = tested on: RPMI-8226 leukemia

Compound: O=C(Nc1ccc(OCc2ccccc2)cc1)Nc1ccc(Cl)c(C(F)(F)F)c1
- GI50 [1]: 2.1 µM
- TGI [1]: 41.3 µM
- GI50 [2]: 1.67 µM
- TGI [2]: 4.25 µM
- GI50 [3]: 2.1 µM
- TGI [3]: 12 µM
- GI50 [4]: 1.5 µM
- TGI [4]: 4.39 µM
- GI50 [5]: 1.61 µM
- TGI [5]: 5.46 µM
- GI50 [6]: 2.28 µM
- TGI [6]: 21.1 µM
- GI50 [7]: 1.54 µM
- TGI [7]: 7.77 µM
- GI50 [8]: 2.5 µM
- TGI [8]: 18.1 µM
- GI50 [9]: 3.25 µM
- TGI [9]: 58.3 µM
- GI50 [10]: 1.24 µM
- TGI [10]: 3.9 µM
- GI50 [11]: 2.11 µM
- TGI [11]: 41.1 µM
- GI50 [12]: 2 µM
- TGI [12]: 14 µM
- GI50 [13]: 1.83 µM
- TGI [13]: 15.2 µM
- GI50 [14]: 1.51 µM
- TGI [14]: 3.65 µM
- GI50 [15]: 2.57 µM
- TGI [15]: > 64.3 µM
- GI50 [16]: 2.58 µM
- TGI [16]: 11.1 µM
- GI50 [17]: 1.9 µM
- TGI [17]: 11.5 µM
- GI50 [18]: 2.34 µM
- TGI [18]: > 64.3 µM
- GI50 [19]: 1.91 µM
- TGI [19]: 7.09 µM
- GI50 [20]: 1.78 µM
- TGI [20]: 7.16 µM
- GI50 [21]: 1.94 µM
- TGI [21]: 7.23 µM
- GI50 [22]: 2.4 µM
- TGI [22]: 30.1 µM
- GI50 [23]: 2 µM
- TGI [23]: 6.59 µM
- GI50 [24]: 2.01 µM
- TGI [24]: 14.1 µM
- GI50 [25]: 2.09 µM
- TGI [25]: 9.89 µM
- GI50 [26]: 2.14 µM
- TGI [26]: 8.25 µM
- GI50 [27]: 1.34 µM
- TGI [27]: 3.83 µM
- GI50 [28]: 2.02 µM
- TGI [28]: 7.36 µM
- GI50 [29]: 2 µM
- TGI [29]: 11.2 µM
- GI50 [30]: 1.4 µM
- TGI [30]: 5.67 µM
- GI50 [31]: 1.69 µM
- TGI [31]: 5.61 µM
- GI50 [32]: 2.19 µM
- TGI [32]: 13.2 µM
- GI50 [33]: 1.76 µM
- TGI [33]: 4.93 µM
- GI50 [34]: 1.81 µM
- TGI [34]: 4.99 µM
- GI50 [35]: 1.75 µM
- TGI [35]: 6.71 µM
- GI50 [36]: 1.98 µM
- TGI [36]: 27.2 µM
- GI50 [37]: 1.29 µM
- TGI [37]: 3.52 µM
- GI50 [38]: 2.25 µM
- TGI [38]: 10.2 µM
- GI50 [39]: 1.79 µM
- TGI [39]: 6.18 µM
- GI50 [40]: 1.61 µM
- TGI [40]: 4.96 µM
- GI50 [41]: 1.54 µM
- TGI [41]: 4.36 µM
- GI50 [42]: 2.28 µM
- TGI [42]: > 64.3 µM
- GI50 [43]: 1.42 µM
- TGI [43]: 4.12 µM
- GI50 [44]: 1.76 µM
- TGI [44]: 5.44 µM
- GI50 [45]: 1.6 µM
- TGI [45]: 5.31 µM
- GI50 [46]: 1.69 µM
- TGI [46]: 5.2 µM
- GI50 [47]: 4.53 µM
- TGI [47]: 41.2 µM
- GI50 [48]: 2.34 µM
- TGI [48]: 9.41 µM
- GI50 [49]: 2.02 µM
- TGI [49]: > 64.3 µM
- GI50 [50]: 2 µM
- TGI [50]: 7.03 µM
- GI50 [51]: 1.9 µM
- TGI [51]: 15.7 µM
- GI50 [52]: 2.19 µM
- TGI [52]: 29.8 µM
- GI50 [53]: 1.62 µM
- TGI [53]: 4.68 µM
- GI50 [54]: 1.81 µM
- TGI [54]: 6.77 µM
- GI50 [55]: 1.82 µM
- TGI [55]: 11 µM
- GI50 [56]: 2.17 µM
- TGI [56]: > 64.3 µM
- GI50 [57]: 2.37 µM
- TGI [57]: 27 µM
- GI50 [58]: 1.69 µM
- TGI [58]: 7.56 µM
